According to patent US8354429B2, “Inhibitors of human immunodeficiency virus replication” (priority 2007, dated 2013):

How the values were obtained:
Assay type in all cases: cell-based
[1] = tested on: HIV-1 2.12 virus with Ala124/Ala125 variant integrase; test: C8166 HIV-1 luciferase assay (EC50), A124/A125 integrase variant virus; settings: Human immunodeficiency virus 1, C8166, read-out: EC50 (nM) A124/A125
Excerpt: (§1) C8166 cells are derived from a human T-lymphotrophic virus type 1 immortalized but nonexpressing line of cord blood lymphocytes (NIH AIDS reagent 404) and are highly permissive to HIV-1 infection. The pGL3 Basic LTR/TAR plasmid is made by introducing the HIV-1 HxB2 LTR sequence from nucleotide −138 to +80 (Sca1-HindIII) upstream of the luciferase gene in the pGL3 Basic Vector (a promoterless luciferase expression vector from Promega catalogue #E1751) with the gene for blasticidine resistance cloned in. The reporter cells are made by electroporating C8166 cells with pGL3 Basic LTR/TAR and selecting positive clones with blasticidine. Clone C8166-LTRluc #A8-F5-G7 was selected by 3 consecutive rounds of limiting dilution under blasticidine selection. Cultures are maintained in complete media (consisting of: Roswell Park Memorial Institute medium (RPMI) 1640+10% FBS+10^−5 M β-mercaptoethanol+10 μg/mL gentamycin) with 5 μg/mL blasticidine, however, blasticidine selection is removed from the cells before performing the viral replication assay.
(§2) Serial dilutions of HIV-1 inhibitor compounds are prepared in complete media from 10 mM DMSO stock solutions. Eleven serial dilutions of 2.5× are made at 8× desired final concentration in a 1 ml deep well titer plate (96 wells). The 12th well contains complete media with no inhibitor and serves as the positive control. All samples contain the same concentration of DMSO 0.1% DMSO). A 25 μL aliquot of inhibitor is added, to triplicate wells, of a 96 well tissue culture treated clear view black microtiter plate (Corning Costar catalogue #3904). The total volume per well is 200 μL of media containing cells and inhibitor. The last row is reserved for uninfected C8166 LTRluc cells to serve as the background blank control and the first row is media alone.
(§3) C8166 LTRluc cells are counted and placed in a minimal volume of complete RPMI 1640 in a tissue culture flask (ex. 30×10^6 cells in 10 mL media/25 cm^2 flask). Cells are infected with HIV-1 or virus with variant integrase generated as described below at a […] (moi) of 0.005. Cells are incubated for 1.5 h at 37° C. on a rotating rack in a 5% CO2 incubator and re-suspended in complete RPMI to give a final concentration of 25,000-cells/175 μL. 175 μL of cell mix is added to wells of a 96 well microtiter plate containing 25 μL 8× inhibitors. 25,000 uninfected C8166-LTRluc cells/well in 200 μL complete RPMI are added to the last row for background control. Cells are incubated at 37° C. in 5% CO2 incubator for 3 days.
(§4) 50 μL Steady Glo (luciferase substrate T1/2=5 hours Promega catalogue #E2520) is added to each well of the 96 well plate. The relative light units (RLU) of luciferase is determined using the LUMIstar Galaxy luminometer (BMG LabTechnologies). Plates are read from the bottom for 2 seconds per well with a gain of 240.
(§5) The level of inhibition (% inhibition) of each well containing inhibitor is calculated as follows: […]
(§6) The calculated % inhibition values are used to determine EC50, slope factor (n) and maximum inhibition (Imax) by the non-linear regression routine NLIN procedure of SAS using the following equation: […]
(§7) The 2.12 virus with NL4.3 strain of HIV-1 integrase (SEQ ID NO: 1) is used for the Thr124/Thr125 variant integrase residues and HXB2 integrase is introduced into the 2.12 virus for the Ala124/Thr125 variant integrase residues. The remaining variants viruses are generated by site directed mutagenesis of NL4.3 integrase to introduce the Ala124/Ala125, Thr124/Ala125, Asn124/Thr125, or Asn124/Ala125 variants in the 2.12 virus. Molecular biology and generation of virus are performed in a similar manner to Doyon et al. J. Virol. 70(6):3763-9 (1996). Briefly, site directed mutagenesis is used to introduce silent mutations in the integrase gene of the 2.12 virus. […]

[2] = tested on: HIV-1 2.12 virus with Thr124/Thr125 variant integrase (NL4.3 integrase); test: C8166 HIV-1 luciferase assay (EC50), T124/T125 integrase variant virus; settings: Human immunodeficiency virus 1, C8166, read-out: EC50 (nM) T124/T125
Excerpt: as §1, §2, §3, §4, §5, §6, §7

[3] = tested on: HIV-1 2.12 virus with Thr124/Ala125 variant integrase; test: C8166 HIV-1 luciferase assay (EC50), T124/A125 integrase variant virus; settings: Human immunodeficiency virus 1, C8166, read-out: EC50 (nM) T124/A125
Excerpt: as §1, §2, §3, §4, §5, §6, §7

[4] = tested on: HIV-1 2.12 virus with Ala124/Thr125 variant integrase (HXB2 integrase); test: C8166 HIV-1 luciferase assay (EC50), A124/T125 integrase variant virus; settings: Human immunodeficiency virus 1, HXB2, C8166, read-out: EC50 (nM) A124/T125
Excerpt: as §1, §2, §3, §4, §5, §6, §7

SMILES	EC50 [1]	EC50 [2]	EC50 [3]	EC50 [4]
Cc1nc2ccccc2c(-c2ccc3ncsc3c2)c1[C@H](OC(C)(C)C)C(=O)O [Compound 1136]	170 nM	200 nM	140 nM	91 nM
Cc1nc2ccccc2c(-c2ccc(Cl)cc2F)c1[C@H](OC(C)(C)C)C(=O)O [Compound 1010]	49 nM	41 nM	76 nM	12 nM
Cc1nc2ccccc2c(-c2ccc(CF)cc2F)c1[C@H](OC(C)(C)C)C(=O)O [Compound 1018]	110 nM	55 nM	93 nM	35 nM
Cc1ccc(-c2c([C@H](OC(C)(C)C)C(=O)O)c(C)nc3ccccc23)cc1C [Compound 1008]	55 nM	59 nM	49 nM	11 nM
CCC(C)(C)Oc1c(C(C(=O)O)c2ccc3c4c(ccnc24)CCO3)c(C)nc2ccccc12 (stereo not drawn) [Compound 2002]	13 nM	19 nM	24 nM	9.9 nM
Cc1nc2ccccc2c(-c2ccc3c(c2)CCC3)c1[C@H](OC(C)(C)C)C(=O)O [Compound 1023]	37 nM	29 nM	31 nM	12 nM
Cc1nc2ccccc2c(-c2ccc3c(c2)CCO3)c1[C@H](OC(C)(C)C)C(=O)O [Compound 1014]	68 nM	87 nM	76 nM	19 nM
Cc1nc2ccccc2c(OC(C)C)c1C(C(=O)O)c1ccc2c3c(ccnc13)CCO2 (stereo not drawn) [Compound 2001]	67 nM	110 nM	120 nM	71 nM
Cc1nc2ccccc2c(-c2ccc3c(c2)C(C)CCO3)c1[C@H](OC(C)(C)C)C(=O)O (stereo partly drawn) [Compound 1052]	64 nM	120 nM	59 nM	28 nM
